Measurements as given in article PMC5642477, “Phosphodiesterase 10A is overexpressed in lung tumor cells and inhibitors selectively suppress growth by blocking β-catenin and MAPK signaling” (Oncotarget, 2017).

What was measured:
Format in all cases: cell-based, human
β-catenin in H1299 cells = assay: Western blotting, β-catenin phosphorylation; conditions: H1299, PQ10 2 µmol/L, 1 hour; KT5823 0.1 µmol/L, H89 1 µmol/L
Experimental: (§1) Whole cell extraction was performed according to a previously described method using cell lysing buffer (Cell Signaling) supplemented with 10 mmol/L NaF for protein phosphorylation studies. Cell lysates were separated by 4-12% gradient, 7% or 10% pre-casting PAGE (Novex/Invitrogen) followed by electrophoretic transfer to a nitrocellulose membrane. Western blotting procedures were performed using Chemiluminescence Reagent (Pierce) and visualized using Chemi Doc Imaging System (BioRad).

[1] = tested on: cleaved PARP and caspase 3 in H1299 cells; assay: Western blotting, cleaved PARP and caspase 3 (apoptosis); conditions: H1299, 24 hours of treatment
Experimental: as §1

[2] = tested on: intracellular cGMP levels in H1299 cells; assay: cGMP biosensor assay (luciferase); conditions: H1299, CNP 100 nmol/L; sildenafil 1 µmol/L, IBMX 100 µmol/L
Experimental: Stable cell lines with an expression of luciferase-based cGMP biosensor were established from H1299 NSCLC cells and HEK293 cells using a genetically encoded GAF-Luc construct (Promega), containing a cGMP-specific binding domain from human PDE5A GAF-A domain fused to modified firefly luciferase (35). Cells were pre-incubated at room temperature in CO2 independent media supplemented with 10% FBS and 5 mmol/L luciferin. For the measurement of intracellular cGMP levels, sodium nitroprusside (SNP) or C-type natriuretic peptide (CNP) in combination with PDE inhibitors were added to initiate the experiment and the increased luminescence values in live cells were detected constantly over a period time of 2 hours.

H1299 cells = assay: Growth assay (Cell Titer Glo); conditions: not shown
Experimental: Cells were plated in half area 96-well microtiter plates (Corning) at a density of 3, 000 cells per well. For drug treatment, cells were treated with compound or DMSO as vehicle (final concentration at 0.2%). For siRNA assays, cells were transfected with siRNAs under the same condition as described above. The effect of treatment on cell growth was measured using the Cell Titer Glo (CTG) assay (Promega) as specified by the measurement of viable cells based on ATP content after 72 hours standard culture. All growth assay involving NSCLCs and NHAECs were performed in the presence of 5% serum.
Drug effects on cell growth and IC50 values were determined as described previously. All experiments were repeated a minimum of three times to determine the reproducibility of the results. All error bars represent standard error of the mean (SEM). Statistical analysis was performed using Student’s t test or other as indicated. A P value of <0.05 was considered statistically significant.

Row | SMILES | effect on PQ10-induced phosphorylation of β-catenin at pSer552 (β-catenin in H1299 cells) | effect on PQ10-induced activation of PARP and caspase 3 [1] | effect on luminescence values in biosensor assay [2] | effect on growth of H1299 cells (H1299 cells)
1 | O=S(=O)(NCCNC/C=C/c1ccc(Br)cc1)c1cccc2cnccc12 [H89] | partial inhibition | ineffective | – | –
2 | CCCc1nn(C)c2c(=O)[nH]c(-c3cc(S(=O)(=O)N4CCN(C)CC4)ccc3OCC)nc12 [Sildenafil, sildenafil] | – | – | did not affect luminescence values | no effect
3 | COC(=O)[C@@]1(OC)C[C@H]2O[C@]1(C)n1c3ccccc3c3c4c(c5c6ccccc6n2c5c31)C(=O)N(C)C4 [KT5823] | partial inhibition | attenuated | – | –
